US4547369A, “Antiviral agent” (Cabinet Harle & Phelip, priority 1973, dated 1985)

System: EMC virus, strain VR 125
Assay: HPA 23 and murine interferon in EMC infected mice
Assay type: in vivo
Conditions: no HPA 23
From the text: Synergism occurs between HPA 23 and murine interferon to combat viral infections in mice.
*Number of survival mice on inoculated mice
**range of death for dead mice

[1] = Interferon 1:3 25.000 I.U./mouse i.p.
[2] = Interferon 1:9 8.000 I.U./mouse i.p.
[3] = Interferon undiluted 75.000 I.U./mouse i.p.
[4] = Interferon undiluted 75.000 I.U./mouse i.v.

## Interferon
[1]
  Number of survival mice on inoculated mice: 3/10
  range of death for dead mice: 5.5 ± 3.0 days
[2]
  Number of survival mice on inoculated mice: 1/10
  range of death for dead mice: 4.4 ± 2.1 days
[3]
  Number of survival mice on inoculated mice: 5/10
  range of death for dead mice: 7.1 ± 3.1 days
[4]
  Number of survival mice on inoculated mice: 6/10
  range of death for dead mice: 7.7 ± 2.9 days
